# Laboratory results as given in article PMC5578999, “Novel quinolone chalcones targeting colchicine-binding pocket kill multidrug-resistant cancer cells by inhibiting tubulin activity and MRP1 function” (Scientific Reports, 2017).
# What was measured:
# Assay in all cases: NCI-60 SRB screen
# Type in all cases: cell-based
# [1] = system: LOX IMVI
# [2] = system: SF-268
# [3] = system: HCT-15
# [4] = system: MALME-3M
# [5] = system: NCI-H322M
# [6] = system: 786-0
# [7] = system: RPMI-8226
# [8] = system: UO-31
# [9] = system: TK-10
# [10] = system: OVCAR-3
# [11] = Homo sapiens, read-out: LC50 (the source's name)
smiles,measurement,setting,value
"COc1ccc2[nH]c(=O)c(/C=C/C(=O)c3ccccc3OC)cc2c1 [CTR-20, (E)-6-Methoxy-3-(3-(2-methoxyphenyl)-3-oxoprop-1-enyl) quinolin-2(1H)-one]",Log10GI50,[1],-6.42 Molar
same,Log10LC50,[1],-5.33 Molar
same,Log10TGI,[1],-5.79 Molar
same,TGI,[1],1.61E-6 Molar
same,Growth Percent,[1]; 1.00E-5 Molar,10.23%
same,GI50,[1]; Homo sapiens,379 nM
same,LC50,[1]; Homo sapiens,4.71 µM
same,Percent Growth,[1]; Log10 Concentration -4.0,-95%
same,Percent Growth,[1]; Log10 Concentration -5.0,-85%
same,Percent Growth,[1]; Log10 Concentration -6.0,22%
same,Percent Growth,[1]; Log10 Concentration -7.0,88%
same,Percent Growth,[1]; Log10 Concentration -8.0,96%
same,Log10GI50,[2],-6.16 Molar
same,Log10LC50,[2],-4.15 Molar
same,Log10TGI,[2],-4.98 Molar
same,TGI,[2],1.05E-5 Molar
same,Growth Percent,[2]; 1.00E-5 Molar,9.36%
same,GI50,[2]; Homo sapiens,690 nM
same,CC50,[2]; [11],70.4 µM
same,Percent Growth,[2]; Log10 Concentration -4.0,-59%
same,Percent Growth,[2]; Log10 Concentration -5.0,1%
same,Percent Growth,[2]; Log10 Concentration -6.0,42%
same,Percent Growth,[2]; Log10 Concentration -7.0,93%
same,Percent Growth,[2]; Log10 Concentration -8.0,92%
same,Log10GI50,[3],-6.40 Molar
same,Log10LC50,[3],-5.08 Molar
same,Log10TGI,[3],-5.69 Molar
same,TGI,[3],2.05E-6 Molar
same,Growth Percent,[3]; 1.00E-5 Molar,11.32%
same,GI50,[3]; Homo sapiens,395 nM
same,LC50,[3]; Homo sapiens,8.29 µM
same,Percent Growth,[3]; Log10 Concentration -4.0,-85%
same,Percent Growth,[3]; Log10 Concentration -5.0,-57%
same,Percent Growth,[3]; Log10 Concentration -6.0,26%
same,Percent Growth,[3]; Log10 Concentration -7.0,86%
same,Percent Growth,[3]; Log10 Concentration -8.0,95%
same,GI50,"[4]; Homo sapiens, Malme-3M",766 nM
same,CC50,"[4]; Homo sapiens, Malme-3M, read-out: LC50 (the source's name)",30.3 µM
same,Log10GI50,[4]; MALME-3M,-6.12 Molar
same,Log10LC50,[4]; MALME-3M,-4.52 Molar
same,Log10TGI,[4]; MALME-3M,-5.09 Molar
same,TGI,[4]; MALME-3M,8.09E-6 Molar
same,Growth Percent,"[4]; MALME-3M, 1.00E-5 Molar",38.55%
same,Percent Growth,"[4]; MALME-3M, Log10 Concentration -4.0",-99%
same,Percent Growth,"[4]; MALME-3M, Log10 Concentration -5.0",-5%
same,Percent Growth,"[4]; MALME-3M, Log10 Concentration -6.0",46%
same,Percent Growth,"[4]; MALME-3M, Log10 Concentration -7.0",81%
same,Percent Growth,"[4]; MALME-3M, Log10 Concentration -8.0",92%
same,Log10GI50,[5],-5.62 Molar
same,Log10LC50,[5],-4.48 Molar
same,Log10TGI,[5],-4.98 Molar
same,TGI,[5],1.04E-5 Molar
same,Growth Percent,[5]; 1.00E-5 Molar,18.31%
same,GI50,[5]; Homo sapiens,2400 nM
same,CC50,[5]; [11],33.5 µM
same,Percent Growth,[5]; Log10 Concentration -4.0,-97%
same,Percent Growth,[5]; Log10 Concentration -5.0,2%
same,Percent Growth,[5]; Log10 Concentration -6.0,80%
same,Percent Growth,[5]; Log10 Concentration -7.0,93%
same,Percent Growth,[5]; Log10 Concentration -8.0,94%
same,Log10GI50,[6],-6.42 Molar
same,Log10LC50,[6],-5.29 Molar
same,Log10TGI,[6],-5.81 Molar
same,TGI,[6],1.56E-6 Molar
same,Growth Percent,[6]; 1.00E-5 Molar,8.21%
same,GI50,[6]; Homo sapiens,378 nM
same,CC50,[6]; [11],5.11 µM
same,Percent Growth,[6]; Log10 Concentration -4.0,-97%
same,Percent Growth,[6]; Log10 Concentration -5.0,-78%
same,Percent Growth,[6]; Log10 Concentration -6.0,19%
same,Percent Growth,[6]; Log10 Concentration -7.0,93%
same,Percent Growth,[6]; Log10 Concentration -8.0,91%
same,Log10GI50,[7],-6.41 Molar
same,Log10LC50,[7],> -4.00 Molar
same,Log10TGI,[7],-5.66 Molar
same,TGI,[7],2.21E-6 Molar
same,Growth Percent,[7]; 1.00E-5 Molar,5.61%
same,GI50,[7]; Homo sapiens,385 nM
same,CC50,[7]; [11],> 100 µM
same,Percent Growth,[7]; Log10 Concentration -4.0,-37%
same,Percent Growth,[7]; Log10 Concentration -5.0,-20%
same,Percent Growth,[7]; Log10 Concentration -6.0,10%
same,Percent Growth,[7]; Log10 Concentration -7.0,106%
same,Percent Growth,[7]; Log10 Concentration -8.0,113%
same,Log10GI50,[8],-6.02 Molar
same,Log10LC50,[8],-5.28 Molar
same,Log10TGI,[8],-5.64 Molar
same,TGI,[8],2.28E-6 Molar
same,Growth Percent,[8]; 1.00E-5 Molar,23.62%
same,GI50,[8]; Homo sapiens,958 nM
same,CC50,[8]; [11],5.27 µM
same,Percent Growth,[8]; Log10 Concentration -4.0,-100%
same,Percent Growth,[8]; Log10 Concentration -5.0,-88%
same,Percent Growth,[8]; Log10 Concentration -6.0,49%
same,Percent Growth,[8]; Log10 Concentration -7.0,81%
same,Percent Growth,[8]; Log10 Concentration -8.0,87%
same,Log10GI50,[9],-5.64 Molar
same,Log10LC50,[9],-4.44 Molar
same,Log10TGI,[9],-4.88 Molar
same,TGI,[9],1.31E-5 Molar
same,Growth Percent,[9]; 1.00E-5 Molar,42.01%
same,GI50,[9]; Homo sapiens,2310 nM
same,CC50,[9]; [11],36.4 µM
same,Percent Growth,[9]; Log10 Concentration -4.0,-99%
same,Percent Growth,[9]; Log10 Concentration -5.0,13%
same,Percent Growth,[9]; Log10 Concentration -6.0,71%
same,Percent Growth,[9]; Log10 Concentration -7.0,93%
same,Percent Growth,[9]; Log10 Concentration -8.0,91%
same,Log10GI50,[10],-6.44 Molar
same,Log10LC50,[10],-5.03 Molar
same,Log10TGI,[10],-5.78 Molar
same,TGI,[10],1.64E-6 Molar
same,Growth Percent,[10]; 1.00E-5 Molar,8.25%
same,GI50,[10]; Homo sapiens,359 nM
same,CC50,[10]; [11],9.33 µM
same,Percent Growth,[10]; Log10 Concentration -4.0,-96%
same,Percent Growth,[10]; Log10 Concentration -5.0,-52%
same,Percent Growth,[10]; Log10 Concentration -6.0,14%
same,Percent Growth,[10]; Log10 Concentration -7.0,95%
same,Percent Growth,[10]; Log10 Concentration -8.0,102%
